The values below are quoted from earlier work in publication PMC4948595 (Journal of Medicinal Chemistry, 2016).

The subject of this series is influenza endonuclease.

In general, IC50 refers to the midpoint of a concentration-inhibition curve. `O=c1[nH]cc(-c2ccc(-c3nnn[nH]3)cc2)cc1O` [Parhi-6]: the IC50 was 0.368 ± 0.041 µM.
